One assay concerns the target FP (Homo sapiens, UniProt P43088). Description: Eicosanoid receptor FP binding. Particulars: [^3H]PGF2α, HEK-293 cells, read-out: CR6086 Activity at 10µM.
A further assay has as its target T1, mouse EP4 receptor (Mus musculus, UniProt P32240).
T1 construct: the cDNA encoding the full-length rat (NM_032076) or mouse (NM_001136079) EP4 receptors; host or cells: HEK293 (transient)
In words: EP4 radioligand binding assay ([^3H]PGE2), mouse receptor. Particulars: [^3H]PGE2 displacement; transiently transfected HEK293 membranes; read-out: Ki CR6086. The source says:
For rodent EP4 receptor cloning, the cDNA encoding the full-length rat (NM_032076) or mouse (NM_001136079) EP4 receptors cloned in pCMV6 entry was provided by OriGene Inc. (TrueORF Gold, catalogue numbers RN206839 and MC216813; OriGene, Rockville, MD, USA). Expression of rat and mouse receptors was obtained by transfecting HEK293 cells with the respective vector using Lipofectamine 3000 reagent (Thermo Fisher Scientific) according to the manufacturer’s instructions.
Membranes expressing the human EP4 receptor were prepared from stably transfected HEK293 cell line. […] Protein content of the cell membrane suspension was determined using bovine serum albumin (BSA) as a standard.
Experimental procedures were performed according to the method of Abramovitz et al.. […] The residual [^3H]PGE2 binding was determined using a solid scintillation counter (TopCount; PerkinElmer) after at least 1 h of stabilisation. In saturation binding studies, isotherm-binding curves generated with six to eight different concentrations of [^3H]PGE2 (from 0.5 to 25 nM) were evaluated. […]
Specific binding to the receptors was defined as the difference between total binding and non-specific binding, as determined in the presence of an excess of unlabelled ligand. […] Competition curves were analysed to assess the half-maximal inhibitory concentration (IC50). […] The results of replicated curves were expressed as mean ± SEM.

In another assay the target is T2, EP3 (Homo sapiens, UniProt P43115).
T2 construct: host or cells: HEK-293 cells
T2 sequence (P43115 whole entry): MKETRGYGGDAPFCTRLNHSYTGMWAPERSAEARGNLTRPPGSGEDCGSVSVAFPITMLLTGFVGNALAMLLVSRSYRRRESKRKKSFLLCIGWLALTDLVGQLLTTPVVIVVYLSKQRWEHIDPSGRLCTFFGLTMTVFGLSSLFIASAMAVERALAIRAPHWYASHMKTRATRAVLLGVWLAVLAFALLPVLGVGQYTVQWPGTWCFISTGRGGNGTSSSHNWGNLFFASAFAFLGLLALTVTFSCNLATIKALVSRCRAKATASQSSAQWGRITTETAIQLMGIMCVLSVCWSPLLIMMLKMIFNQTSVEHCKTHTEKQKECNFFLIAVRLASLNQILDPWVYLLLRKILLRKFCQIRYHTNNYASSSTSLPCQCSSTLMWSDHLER
Description: Eicosanoid receptor EP3 binding. Particulars: [^3H]PGE2, HEK-293 cells, read-out: CR6086 Activity at 10µM.

The target of another assay is M4 (Homo sapiens, UniProt P08173). Description: Muscarinic acetylcholine receptor M4 binding. Particulars: [^3H]4-DAMP, Human recombinant CHO cells, read-out: CR6086 Activity at 10µM.
Sequence of M4 (P08173 whole entry): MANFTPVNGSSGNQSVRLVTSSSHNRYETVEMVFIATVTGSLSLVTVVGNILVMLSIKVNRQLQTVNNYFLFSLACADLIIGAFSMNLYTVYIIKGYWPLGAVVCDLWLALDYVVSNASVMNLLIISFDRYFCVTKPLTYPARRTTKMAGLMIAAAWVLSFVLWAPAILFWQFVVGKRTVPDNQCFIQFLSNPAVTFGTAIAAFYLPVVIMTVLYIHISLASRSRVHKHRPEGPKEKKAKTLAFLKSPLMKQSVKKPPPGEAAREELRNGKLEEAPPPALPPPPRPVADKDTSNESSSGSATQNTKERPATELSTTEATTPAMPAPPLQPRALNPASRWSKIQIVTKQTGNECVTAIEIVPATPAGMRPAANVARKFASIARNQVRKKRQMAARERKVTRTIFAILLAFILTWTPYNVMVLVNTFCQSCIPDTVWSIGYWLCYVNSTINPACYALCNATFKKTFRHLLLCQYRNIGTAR
A further assay addresses 5-HT1B (Rattus norvegicus, UniProt P28564). In words: Serotonin receptor 5-HT1B binding. Particulars: [^125I]CYP (+30µM isoproterenol), Rat cerebral cortex, read-out: CR6086 Activity at 10µM.
In the next assay the test system is sst (non-selective). In words: sst receptor (non-selective) binding. Conditions: [^125I]Tyr^11-somatostatin-14, AtT-20 cells.
Another assay has as its system α2 (non-selective). In words: Adrenergic receptor α2 binding. Particulars: [^3H]RX 821002, Rat cerebral cortex.
For the next assay, the target named is GAL1 (Homo sapiens, UniProt P47211). Description: Galanin receptor GAL1 binding. Conditions: [^125I]galanin, Human recombinant HEK-293 cells, read-out: CR6086 Activity at 10µM.
Sequence of GAL1 (P47211 whole entry): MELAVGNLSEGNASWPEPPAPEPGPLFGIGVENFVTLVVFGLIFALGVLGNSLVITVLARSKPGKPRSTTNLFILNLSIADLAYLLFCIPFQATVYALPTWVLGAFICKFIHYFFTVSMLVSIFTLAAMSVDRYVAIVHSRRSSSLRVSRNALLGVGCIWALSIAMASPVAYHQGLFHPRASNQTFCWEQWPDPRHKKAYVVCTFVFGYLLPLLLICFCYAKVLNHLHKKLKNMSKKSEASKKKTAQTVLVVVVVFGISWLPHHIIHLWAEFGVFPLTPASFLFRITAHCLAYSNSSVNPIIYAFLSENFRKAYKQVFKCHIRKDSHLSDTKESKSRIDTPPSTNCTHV
A further assay concerns the target NK1 (Homo sapiens, UniProt P25103). Description: Neurokinin receptor NK1 binding. Conditions: [^125I]BH-SP, U-373MG cells (endogenous), read-out: CR6086 Activity at 10µM.
Another assay has as its target DP1 (Homo sapiens, UniProt Q13258). Description: Eicosanoid receptor DP1 functional assay. Format: cell-based. Particulars: CHO cells.
A further assay addresses NK2 (Homo sapiens, UniProt P21452). In words: Neurokinin receptor NK2 binding. Particulars: [^125I]NKA, Human recombinant CHO cells, read-out: CR6086 Activity at 10µM.
A further assay deals with MC4 (Homo sapiens, UniProt P32245). Description: MC4 receptor binding. Particulars: [^125I]NDP-α-MSH, Human recombinant CHO cells, read-out: CR6086 Activity at 10µM.
Sequence of MC4 (P32245 whole entry): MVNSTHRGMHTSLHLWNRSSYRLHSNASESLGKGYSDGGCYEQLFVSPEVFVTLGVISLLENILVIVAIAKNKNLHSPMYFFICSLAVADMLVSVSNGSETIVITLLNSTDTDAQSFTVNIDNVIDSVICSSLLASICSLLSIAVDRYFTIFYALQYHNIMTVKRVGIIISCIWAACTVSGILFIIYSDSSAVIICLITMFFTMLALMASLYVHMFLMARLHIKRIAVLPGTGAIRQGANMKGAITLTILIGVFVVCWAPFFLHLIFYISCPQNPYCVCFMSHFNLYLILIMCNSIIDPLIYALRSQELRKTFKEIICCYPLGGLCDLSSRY

Where only a bound is given, the exact number is not on record here.

Sequence of DP1 (Q13258 whole entry): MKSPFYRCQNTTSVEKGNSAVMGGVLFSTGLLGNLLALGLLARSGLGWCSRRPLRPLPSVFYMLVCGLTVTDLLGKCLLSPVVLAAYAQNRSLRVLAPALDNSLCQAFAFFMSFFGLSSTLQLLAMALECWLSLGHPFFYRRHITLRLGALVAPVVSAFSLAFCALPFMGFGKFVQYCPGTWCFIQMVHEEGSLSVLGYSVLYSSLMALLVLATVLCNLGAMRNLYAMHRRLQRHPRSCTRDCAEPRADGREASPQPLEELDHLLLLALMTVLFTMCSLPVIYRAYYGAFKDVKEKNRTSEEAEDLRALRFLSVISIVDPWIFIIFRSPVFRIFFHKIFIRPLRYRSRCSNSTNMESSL
T1 sequence (P32240 whole entry): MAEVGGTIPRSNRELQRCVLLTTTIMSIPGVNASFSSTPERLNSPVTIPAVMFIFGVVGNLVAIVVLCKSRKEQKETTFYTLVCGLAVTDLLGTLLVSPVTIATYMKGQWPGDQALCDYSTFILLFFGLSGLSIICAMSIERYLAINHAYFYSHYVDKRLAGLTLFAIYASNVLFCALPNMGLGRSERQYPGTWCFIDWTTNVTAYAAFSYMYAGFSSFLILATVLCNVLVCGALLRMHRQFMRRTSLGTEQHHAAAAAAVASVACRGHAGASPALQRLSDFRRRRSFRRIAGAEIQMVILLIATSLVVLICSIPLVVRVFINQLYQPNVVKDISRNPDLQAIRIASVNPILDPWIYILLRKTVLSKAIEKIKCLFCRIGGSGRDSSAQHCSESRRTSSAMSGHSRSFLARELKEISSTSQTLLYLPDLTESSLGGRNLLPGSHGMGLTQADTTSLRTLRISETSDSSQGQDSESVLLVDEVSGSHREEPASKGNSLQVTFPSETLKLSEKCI
Sequence of NK1 (P25103 whole entry): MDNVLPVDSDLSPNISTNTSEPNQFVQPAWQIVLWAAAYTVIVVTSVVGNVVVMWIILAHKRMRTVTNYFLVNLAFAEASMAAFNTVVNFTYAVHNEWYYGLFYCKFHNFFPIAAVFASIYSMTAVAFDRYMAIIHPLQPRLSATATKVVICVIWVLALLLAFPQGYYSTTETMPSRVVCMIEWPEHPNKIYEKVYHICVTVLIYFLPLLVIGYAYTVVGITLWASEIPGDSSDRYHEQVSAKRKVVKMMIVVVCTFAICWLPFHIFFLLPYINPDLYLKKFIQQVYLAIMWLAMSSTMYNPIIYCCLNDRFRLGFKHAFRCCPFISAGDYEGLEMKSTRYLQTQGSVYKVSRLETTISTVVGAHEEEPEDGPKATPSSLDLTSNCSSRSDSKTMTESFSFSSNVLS
Sequence of FP (P43088 whole entry): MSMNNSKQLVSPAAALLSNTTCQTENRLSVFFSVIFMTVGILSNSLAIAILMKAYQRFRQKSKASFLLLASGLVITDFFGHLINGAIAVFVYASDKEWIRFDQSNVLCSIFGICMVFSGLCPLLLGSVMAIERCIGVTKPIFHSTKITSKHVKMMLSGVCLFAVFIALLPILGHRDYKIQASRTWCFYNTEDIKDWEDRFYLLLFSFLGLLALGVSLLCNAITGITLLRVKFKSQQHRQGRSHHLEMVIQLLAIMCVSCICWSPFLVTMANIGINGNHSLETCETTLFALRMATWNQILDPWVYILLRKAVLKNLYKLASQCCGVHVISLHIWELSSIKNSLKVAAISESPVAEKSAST
Sequence of 5-HT1B (P28564 whole entry): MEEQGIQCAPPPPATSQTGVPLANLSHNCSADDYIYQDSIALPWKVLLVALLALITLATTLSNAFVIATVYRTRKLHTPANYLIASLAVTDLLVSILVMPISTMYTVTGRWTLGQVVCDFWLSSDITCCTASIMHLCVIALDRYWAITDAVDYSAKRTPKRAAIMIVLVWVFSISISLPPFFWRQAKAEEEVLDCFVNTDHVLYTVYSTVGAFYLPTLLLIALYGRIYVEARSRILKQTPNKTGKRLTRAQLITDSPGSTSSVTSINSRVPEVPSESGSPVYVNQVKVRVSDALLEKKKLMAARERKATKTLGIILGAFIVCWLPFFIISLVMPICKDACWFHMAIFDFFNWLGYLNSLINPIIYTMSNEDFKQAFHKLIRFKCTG
Sequence of NK2 (P21452 whole entry): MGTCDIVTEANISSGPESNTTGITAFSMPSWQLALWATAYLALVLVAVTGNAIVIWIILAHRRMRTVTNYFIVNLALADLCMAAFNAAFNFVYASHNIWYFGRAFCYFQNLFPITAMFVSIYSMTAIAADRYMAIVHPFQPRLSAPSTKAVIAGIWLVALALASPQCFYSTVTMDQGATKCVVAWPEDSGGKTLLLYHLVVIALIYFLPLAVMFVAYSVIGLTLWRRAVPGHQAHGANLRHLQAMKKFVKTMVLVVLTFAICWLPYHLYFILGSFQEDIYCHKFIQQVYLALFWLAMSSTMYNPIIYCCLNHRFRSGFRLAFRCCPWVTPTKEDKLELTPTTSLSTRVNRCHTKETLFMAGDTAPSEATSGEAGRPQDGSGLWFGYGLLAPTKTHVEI

The Ki is a dissociation constant, usually derived from enzyme kinetics or from competition with a known ligand. As for `O=C([O-])c1ccc(C2(NC(=O)[C@H]3CC4(CCN3Cc3ccc(C(F)(F)F)cc3)CC4)CC2)cc1.[Na+]` [CR6086, Sodium (R)-4-(1-(6-(4-(trifluoromethyl)benzyl)-6-azaspiro[2.5]octane-5-carboxamido)cyclopropyl)benzoate], the inhibition at 10 µM at FP, on EP3, at M4, on 5-HT1B, on GAL1 and at NK1 was less than 20% each time. Besides, the inhibition at 10 µM on DP1 (agonist effect, read-out: CR6086 Activity at 10µM) is less than 20%; on NK2 it was less than 20%; on MC4 it was less than 20%. The Ki at mouse EP4 receptor was 75.9 ± 7.6 nM. Besides, the “CR6086 Activity at 10µM” value in the assay on sst (non-selective), in the assay with α2 (non-selective) and on DP1 (antagonist effect) was “IN (IN = < 20% displacement or inhibition (all tables))” in each case.

The values are drawn from paper PMC5831858, “Pharmacological characterisation of CR6086, a potent prostaglandin E2 receptor 4 antagonist, as a new potential disease-modifying anti-rheumatic drug” (Arthritis Research & Therapy, 2018).
